The results in this text go back to ChEMBL document CHEMBL5154640, “Novel naphthyl based 1,2,4-trioxanes: Synthesis and in vivo efficacy in the Plasmodium yoelii nigeriensis in Swiss mice” (2021).

Experiment [1] concerns Plasmodium yoelii nigeriensis. In words: Antimalarial activity against Plasmodium yoelii nigeriensis infected in Swiss mouse assessed as suppression of parasitemia at 96 mg/kg, po measured after 4 days relative to control. The format is functional. The note with it: time 4 day.
Experiment [2] has as its system Plasmodium yoelii nigeriensis. In words: Antimalarial activity against Plasmodium yoelii nigeriensis infected in Swiss mouse assessed as suppression of parasitemia at 96 mg/kg, im measured after 4 days relative to control. The class given is functional. The note with it: time 4 day.
Experiment [3] has as its system Plasmodium yoelii nigeriensis. The experiment can be described thus: Antimalarial activity against Plasmodium yoelii nigeriensis infected in Swiss mouse assessed as suppression of parasitemia at 24 mg/kg, po measured after 4 days relative to control. The class given is functional. The note with it: time 4 day.
For experiment [4], the system named is Plasmodium yoelii nigeriensis. The experiment can be described thus: Antimalarial activity against Plasmodium yoelii nigeriensis infected in Swiss mouse assessed as suppression of parasitemia at 24 mg/kg, im measured after 4 days relative to control. The note with it: time 4 day. The format is functional.
Experiment [5] relates to Plasmodium yoelii nigeriensis. The experiment can be described thus: Antimalarial activity against Plasmodium yoelii nigeriensis infected in Swiss mouse assessed as suppression of parasitemia at 48 mg/kg, po measured after 4 days relative to control. Conditions: time 4 day. The format is functional.
Experiment [6] concerns Plasmodium yoelii nigeriensis. The experiment can be described thus: Antimalarial activity against Plasmodium yoelii nigeriensis infected in Swiss mouse assessed as suppression of parasitemia at 48 mg/kg, im measured after 4 days relative to control. The format is functional. Conditions: time 4 day.
Experiment [7] deals with Plasmodium yoelii nigeriensis. In words: Antimalarial activity against Plasmodium yoelii nigeriensis infected in Swiss mouse assessed as survival at 96 mg/kg, po measured after 4 days relative to control. Conditions: time 4.0 day. The class given is functional, organism-based.
Experiment [8] concerns Plasmodium yoelii nigeriensis. In words: Antimalarial activity against Plasmodium yoelii nigeriensis infected in Swiss mouse assessed as survival at 48 mg/kg, po measured after 4 days relative to control. The format is functional, organism-based. The note with it: time 4.0 day.
Experiment [9] has as its system Plasmodium yoelii nigeriensis. In words: Antimalarial activity against Plasmodium yoelii nigeriensis infected in Swiss mouse assessed as survival at 48 mg/kg, im measured after 4 days relative to control. The format is functional, organism-based. The note with it: time 4.0 day.

Calls of active or inactive are those of the source. The calls are words filed in the database; no cut-off is given here.

For the compound `C=C(c1ccc(OC(C)(C)CO)c2ccccc12)C1COC2(OO1)C1CC3CC(C1)CC2C3` (stereo not given), the Activity in [1] turned out to be 100%; in experiment [2], 100%; in experiment [3], 100%; in [4], 27.68%; in experiment [5] it was 100%; in experiment [6] it was 70.24%. Further, the result in experiment [7] and in [8] was Active.

For `C/C(=C/CO)C12OOC(C)(C)OC1CC(=O)c1ccccc12` (stereo not given), the values for the Activity in experiment [1] and in [2] were 53.17% and 37.81%, respectively.

For the compound `C/C(=C/CO)C12OOC3(CCCC3)OC1CC(=O)c1ccccc12` (stereo not given), the Activity came to 39.17% in experiment [1] and 37.43% in experiment [2].

`C=C(c1ccc(O[Si](C)(C)C(C)(C)C)c2ccccc12)C1COC2(OO1)C1CC3CC(C1)CC2C3` (stereo not given): in [1], the Activity was 27.71%.

With `C=C(c1ccc(OCCO)c2ccccc12)C1COC2(CCCCC2)OO1` (stereo not given), the Activity worked out at 75.34% in experiment [1] and 100% in experiment [2].

On to `C=C(c1ccc(OC(C)(C)CO)c2ccccc12)C1COC2(CCCC2)OO1` (stereo not given), for which the Activity in experiment [1] and in [2] was 100% throughout. The result in [7] was Active.

For the compound `C=C(c1ccc(O[Si](C)(C)C(C)(C)C)c2ccccc12)C1COC(C)(C)OO1` (stereo not given), the Activity in [1] was determined as 14.7%.

For `C=C(c1ccc(O[Si](C)(C)C(C)(C)C)c2ccccc12)C1COC2(CCCC2)OO1` (stereo not given), the Activity in experiment [1] was 27.71%.

As to `C=C(c1ccc(OC(C)(C)CO)c2ccccc12)C1COC(C)(C)OO1` (stereo not given), the Activity in [1] is on record as 24.76%; in [2], 48.27%.

Regarding `C=C(c1ccc(OC(C)(C)CO)c2ccccc12)C1COC2(CCCCC2)OO1` (stereo not given), the Activity in experiment [1] and in experiment [2] was 100% throughout. For the same compound, the outcome in [7] was Active.

For `C/C(=C/CO)C12OOC3(OC1CC(=O)c1ccccc12)C1CC2CC(C1)CC3C2` (stereo not given), the Activity in [1] stood at 45.68%; in experiment [2], 35.89%.

`C=C(c1ccc(OCCO)c2ccccc12)C1COC2(OO1)C1CC3CC(C1)CC2C3` (stereo not given): the Activity is 24.1% in [1] and 20.54% in experiment [2].

`C=C(c1ccc(OCCO)c2ccccc12)C1COC(C)(C)OO1` (stereo not given): the results for the Activity in experiment [1] and in [2] were 22.89% and 40%, respectively.

Take `C[C@@H]1CC[C@H]2[C@@H](C)C(=O)O[C@@H]3O[C@@]4(C)CC[C@@H]1[C@]32OO4` [ARTEMISININ]: the Activity in experiment [4], in experiment [5] and in experiment [6] was 100% throughout. In [9], the result was Active.

As for `C=C(c1ccc(OCCO)c2ccccc12)C1COC2(CCCC2)OO1` (stereo not given), the Activity in experiment [1] came to 57.23%; in experiment [2], 100%.

With `C=C(c1ccc(O[Si](C)(C)C(C)(C)C)c2ccccc12)C1COC2(CCCCC2)OO1` (stereo not given), in [1], the Activity is 45.56%.

In the case of `C/C(=C/CO)C12OOC3(CCCCC3)OC1CC(=O)c1ccccc12` (stereo not given), the Activity is reported as 52.78% in [1] and 51.63% in [2].
